Assays:
[1] = target: T1, Angiotensin-converting enzyme (Oryctolagus cuniculus, UniProt P12822); experiment: Inhibitory concentration against angiotensin converting enzyme (ACE)
T1 sequence (P12822 whole entry): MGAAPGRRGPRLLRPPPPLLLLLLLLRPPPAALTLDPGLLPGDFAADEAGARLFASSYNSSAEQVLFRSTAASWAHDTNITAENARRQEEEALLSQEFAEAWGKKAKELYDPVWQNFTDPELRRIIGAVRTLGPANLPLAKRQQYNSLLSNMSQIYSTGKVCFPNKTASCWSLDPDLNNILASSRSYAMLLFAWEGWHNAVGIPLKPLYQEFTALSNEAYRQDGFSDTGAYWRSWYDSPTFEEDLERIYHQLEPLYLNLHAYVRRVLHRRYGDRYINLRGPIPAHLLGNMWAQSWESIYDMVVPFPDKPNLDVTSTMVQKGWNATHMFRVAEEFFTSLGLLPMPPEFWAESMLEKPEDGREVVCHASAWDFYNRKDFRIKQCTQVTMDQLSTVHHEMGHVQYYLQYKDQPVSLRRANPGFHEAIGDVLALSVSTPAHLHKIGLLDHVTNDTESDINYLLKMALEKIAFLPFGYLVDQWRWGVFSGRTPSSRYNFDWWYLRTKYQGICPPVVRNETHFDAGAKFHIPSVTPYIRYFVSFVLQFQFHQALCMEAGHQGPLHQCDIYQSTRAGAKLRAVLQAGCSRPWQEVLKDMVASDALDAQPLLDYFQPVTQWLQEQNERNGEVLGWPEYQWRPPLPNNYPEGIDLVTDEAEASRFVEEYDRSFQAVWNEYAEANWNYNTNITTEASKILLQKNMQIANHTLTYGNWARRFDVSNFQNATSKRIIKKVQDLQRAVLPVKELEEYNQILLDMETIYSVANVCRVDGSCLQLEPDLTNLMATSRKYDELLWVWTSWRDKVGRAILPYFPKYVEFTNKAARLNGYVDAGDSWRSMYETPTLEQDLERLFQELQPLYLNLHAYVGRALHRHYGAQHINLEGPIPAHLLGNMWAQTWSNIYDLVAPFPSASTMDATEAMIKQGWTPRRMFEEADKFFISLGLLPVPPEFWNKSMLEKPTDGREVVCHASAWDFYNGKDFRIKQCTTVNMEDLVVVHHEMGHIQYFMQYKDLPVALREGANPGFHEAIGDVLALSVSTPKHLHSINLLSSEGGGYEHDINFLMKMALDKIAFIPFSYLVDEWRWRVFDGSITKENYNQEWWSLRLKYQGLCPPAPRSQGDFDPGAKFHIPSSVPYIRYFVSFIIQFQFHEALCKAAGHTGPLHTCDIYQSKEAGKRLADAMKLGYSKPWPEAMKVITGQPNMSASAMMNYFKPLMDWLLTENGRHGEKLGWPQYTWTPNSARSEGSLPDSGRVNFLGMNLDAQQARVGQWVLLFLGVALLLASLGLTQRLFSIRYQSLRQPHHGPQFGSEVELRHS

[2] = target: T1, Angiotensin-converting enzyme; experiment: Inhibitory concentration against angiotensin converting enzyme (ACE); No activity in experimental concentration range

IC50 [1]	IC50 [2]	Structure (SMILES)
5 µM	–	O=C(N[C@@H](Cc1ccccc1)C(=O)C[C@@H](O)C(=O)N1CCC[C@H]1C(=O)O)c1ccccc1
0.09 µM	–	O=C(N[C@@H](Cc1ccccc1)C(=O)C[C@@H](O)C(=O)N1c2ccccc2C[C@H]1C(=O)O)c1ccccc1
5 µM	–	O=C(N[C@@H](Cc1ccccc1)C(=O)C[C@H](O)C(=O)N1c2ccccc2C[C@H]1C(=O)O)c1ccccc1
> 1000 µM	–	O=C(N[C@@H](Cc1ccccc1)C1=NO[C@@H](C(=O)N2c3ccccc3C[C@H]2C(=O)O)C1)c1ccccc1
100 µM	–	O=C(N[C@@H](Cc1ccccc1)C(=O)C[C@H](O)C(=O)N1CCC[C@H]1C(=O)O)c1ccccc1
–	Not Active	O=C(N[C@@H](Cc1ccccc1)C1=NO[C@@H](C(=O)N2CCC[C@H]2C(=O)O)C1)c1ccccc1
–	Not Active	O=C(N[C@@H](Cc1ccccc1)C1=NO[C@H](C(=O)N2c3ccccc3C[C@H]2C(=O)O)C1)c1ccccc1
–	Not Active	O=C(N[C@@H](Cc1ccccc1)C1=NO[C@H](C(=O)N2CCC[C@H]2C(=O)O)C1)c1ccccc1

Source: ChEMBL document CHEMBL1150551, “Novel angiotensin converting enzyme inhibitors containing -hydroxy ketomethylene dipeptide isosteres” (Bioorg Med Chem Lett, 1994)
